From US20100285959A1, “HERBICIDAL MIXTURES” (priority 2006, published 2010)
Blank lines part the entries; values can stand above or below the compound they belong to.

Key:
[1] = system: redroot pigweed (AMARE); assay: Test 2 field trial, preemergence; assay type: in vivo, Amaranthus retroflexus; design: scale not given here
Source text: Corn seeds (hybrid ‘Pioneer 31G96’) were planted in mid spring season, 3.8 cm deep in a clay loam soil having 2% organic matter and a pH of 6.6. Plots were 6.1 m long by 3.0 m wide with rows spaced 76 cm apart. Seeds were spaced 15 cm apart within the rows. The field was managed using conventional tillage practices. […] A few of the weed species could not be evaluated at every timing. […] Results are the means of the three replicates.

[2] = system: Russian thistle (SASKR); assay: Test 21 growth chamber, postemergence; assay type: in vivo, Salsola kali; conditions: 19 DAA
Method: (§1) A test was conducted to evaluate the effects on winter barley (HORVW, Hordeum vulgare L.), winter wheat (TRZAW, Triticum aestivum L.), and several weed species, of mixtures of Compound 2 with the commercial herbicide (2,4-dichlorophenoxy)acetic acid (2,4-D), an auxin mimic. […] Plants were treated postemergence at the 2-4 leaf growth stage, and each treatment was replicated one time. […] Plants were watered as needed. […] Results are from single replicates.

[3] = system: winter barley (HORVW); assay: Test 19 growth chamber, postemergence; assay type: in vivo, Hordeum vulgare
Method: as §1, with “L.) and” for “L.),”, “L.)” for “L.), and several weed species,”, “3-leaf” for “2-4 leaf”, “four times.” for “one time.”, “the means of the four” for “from single”

[4] = system: galium (GALAP); assay: Test 22 growth chamber, postemergence; assay type: in vivo, Galium aparine; conditions: 25 DAA
Method: as §1, with “species” for “species,”, “herbicides” for “herbicide”, “(2,4-D) and (4-chloro-2-methylphenoxy)acetic acid (MCPA),” for “(2,4-D), an”, “mimics.” for “mimic.”, “stage, except KCHSC, SASKR” for “stage,”, “STEME which were in the 4-8 leaf growth stage. Each” for “each”

[5] = system: wild buckwheat (POLCO); assay: Test 21 growth chamber, postemergence; assay type: in vivo, Polygonum convolvulus; conditions: 19 DAA
Method: as §1

[6] = system: redroot pigweed (AMARE); assay: Test 22 growth chamber, postemergence; assay type: in vivo, Amaranthus retroflexus; conditions: 25 DAA
Method: as §1, with “species” for “species,”, “herbicides” for “herbicide”, “(2,4-D) and (4-chloro-2-methylphenoxy)acetic acid (MCPA),” for “(2,4-D), an”, “mimics.” for “mimic.”, “stage, except KCHSC, SASKR” for “stage,”, “STEME which were in the 4-8 leaf growth stage. Each” for “each”

[7] = system: wild radish (RAPRA); assay: Test 7 field trial, preemergence; assay type: in vivo, Raphanus raphanistrum
Method: Plots were 7.6 m long by 3.0 m wide with rows spaced 76 cm apart. Seeds were spaced 15 cm apart within the rows. The field was managed using conventional tillage practices. […] Wild radish was evaluated 14 and 28 days after application. […] Results are the means of the three replicates.

[8] = system: common sugarcane (SACOF); assay: Test 12 field trial, preemergence; assay type: in vivo, Saccharum officinarum; design: scale not given here; conditions: Cpd 2 or Cpd 1 62 g a.i./ha, Diuron 2000 g a.i./ha
Source text: In early-mid spring season, corn seeds (hybrid ‘Pioneer 3041’) were planted 5 cm deep and sugarcane nodes (variety RB-72.454) were planted 10 cm deep in separate plots in a clay soil having 2.6% organic matter and a pH of 5.6. Plots were 24 m long by 1.5 m wide with rows spaced 80 cm (corn) or 140 cm (sugarcane) apart. Corn seeds were spaced 15 cm apart and sugarcane nodes were spaced 10 cm apart within the rows. At the same time, weed seeds were broadcast over the surface of separate plots without a crop, one weed species per plot. The weed plots were rotary tilled to incorporate the weed seeds to a variety of depths. The field was managed using conventional tillage practices.

[9] = system: winter barley (HORVW); assay: Test 21 growth chamber, postemergence; assay type: in vivo, Hordeum vulgare; conditions: 19 DAA
Method: as §1

[10] = system: giant foxtail (SETFA); assay: Test 14 field trial, preemergence, growth as percent of control; assay type: in vivo, Setaria faberi
Source text: Corn seeds (hybrid ‘Pioneer 31G96 RR’) were planted in mid spring season, 3.8 cm deep in a clay loam soil having 2% organic matter and a pH of 6.6. Plots were 6.1 m long by 3.0 m wide with rows spaced 76 cm apart. Seeds were spaced 15 cm apart within the rows. The field was managed using conventional tillage practices. […] Yellow nutsedge was only evaluated 19 and 28 days after application, and ivyleaf morningglory could only be evaluated 28 days after application. […] Results are the means of the three replicates. This growth inhibition data was converted to results in the form of “plant growth as a percent of control plant growth” using the calculation “100 minus growth inhibition”. […] For “growth as a percent of control” data, Colby's Equation calculates the expected additive effect of herbicidal mixtures having two active ingredients as follows:
Ga+b=GaGb/100 • wherein Ga+b is the growth as a percent of control of plants treated with the mixture expected from additive contribution of the individual components, • Ga is the observed growth as a percent of control of plants treated with the first active ingredient at the same use rate as in the mixture, and • Gb is the observed growth as a percent of control of plants treated with the second active ingredient at the same use rate as in the mixture. For mixtures having three active ingredients, Colby's Equation to calculate the expected additive effect of herbicidal mixtures is as follows:
Ga+b+c=GaGbGc/10,000 • wherein Ga and Gb are as defined above and • Ga+b+c is the growth as a percent of control of plants treated with the mixture expected from additive contribution of the individual components, and • Gc is the observed growth as a percent of control of plants treated with the third active ingredient at the same use rate as in the mixture. When these two forms of Colby's Equation are used, if the observed effects on weeds are less than the expected values, the mixture is synergistic.

[11] = 28 DAA, g a.i./ha: Cpd 2 25, Atrazine 250
[12] = 28 DAA, g a.i./ha: Cpd 2 50, Atrazine 500
[13] = 28 DAA, g a.i./ha: Cpd 2 75, Atrazine 750
[14] = 28 DAA, g a.i./ha: Cpd 2 100, Atrazine 1000
[15] = 28 DAA, g a.i./ha: Cpd 2 150, Atrazine 1500
[16] = 55 DAA, g a.i./ha: Cpd 2 25, Atrazine 250
[17] = 55 DAA, g a.i./ha: Cpd 2 50, Atrazine 500
[18] = 55 DAA, g a.i./ha: Cpd 2 75, Atrazine 750
[19] = 55 DAA, g a.i./ha: Cpd 2 100, Atrazine 1000
[20] = 55 DAA, g a.i./ha: Cpd 2 150, Atrazine 1500
[21] = 2,4-D or MCPA alone 250 g a.i./ha

SMILES: COC(=O)c1nc(C2CC2)nc(N)c1Cl [Compound 2, methyl 6-amino-5-chloro-2-cyclopropyl-4-pyrimidinecarboxylate]
AMARE Obs [1, 11]: 30
AMARE Obs [1, 12]: 90
AMARE Obs [1, 13]: 98
AMARE Obs [1, 14]: 93
AMARE Obs [1, 15]: 82
AMARE Obs [1, 16]: 100
AMARE Obs [1, 17]: 100
AMARE Obs [1, 18]: 100
AMARE Obs [1, 19]: 100
AMARE Obs [1, 20]: 100
Postemergence SASKR Obs ([2]; Cpd 2 alone 16 g a.i./ha): 65
HORVW Obs ([3]; in vivo): 45
Postemergence GALAP Obs ([4]; Cpd 2 alone 4 g a.i./ha): 65
Postemergence GALAP Obs ([4]; Cpd 2 alone 8 g a.i./ha): 90
Postemergence GALAP Obs ([4]; Cpd 2 alone 16 g a.i./ha): 100
Postemergence POLCO Obs ([5]; Cpd 2 alone 16 g a.i./ha): 70
Postemergence AMARE Obs ([6]; Cpd 2 alone 4 g a.i./ha): 55
Postemergence AMARE Obs ([6]; Cpd 2 alone 8 g a.i./ha): 65
Postemergence AMARE Obs ([6]; Cpd 2 alone 16 g a.i./ha): 65
RAPRA Obs ([7]; 14 DAA, 125 g a.i./ha): 35%
RAPRA Obs ([7]; 14 DAA, 250 g a.i./ha): 53%
RAPRA Obs ([7]; 14 DAA, 500 g a.i./ha): 73%
RAPRA Obs ([7]; 28 DAA, 250 g a.i./ha): 38%
RAPRA Obs ([7]; 28 DAA, 500 g a.i./ha): 58%
SACOF Obs ([8]; 15 DAA): 0
SACOF Obs ([8]; 29 DAA): 0
SACOF Obs ([8]; 48 DAA): 0
SACOF Obs ([8]; 61 DAA): 5
Postemergence HORVW Obs ([9]; Cpd 2 alone 16 g a.i./ha): 30
Obs growth % of control ([10]; 19 DAA, 75 g a.i./ha): 58%
Obs growth % of control ([10]; 19 DAA, 100 g a.i./ha): 48%
Obs growth % of control ([10]; 28 DAA, 75 g a.i./ha): 68%
Obs growth % of control ([10]; 28 DAA, 100 g a.i./ha): 67%
Obs growth % of control ([10]; 56 DAA, 75 g a.i./ha): 92%
Obs growth % of control ([10]; 56 DAA, 100 g a.i./ha): 97%

SMILES: O=C(O)COc1ccc(Cl)cc1Cl [2,4-D, (2,4-dichlorophenoxy)acetic acid]
Postemergence SASKR Obs ([2]; 2,4-D alone 125 g a.i./ha): 60
Postemergence SASKR Obs ([2]; 2,4-D alone 250 g a.i./ha): 55
HORVW Obs ([3]; Postemergence, 17 DAA, g a.i./ha: Cpd 2 16, 2,4-D 250): 15
HORVW Obs ([3]; Postemergence, 17 DAA, g a.i./ha: Cpd 2 16, 2,4-D 500): 5
HORVW Obs ([3]; Postemergence, 17 DAA, g a.i./ha: Cpd 2 16, 2,4-D 1000): 10
Postemergence GALAP Obs [4, 21]: 30
Postemergence POLCO Obs ([5]; 2,4-D alone 125 g a.i./ha): 20
Postemergence POLCO Obs ([5]; 2,4-D alone 250 g a.i./ha): 20
Postemergence AMARE Obs [6, 21]: 70
Postemergence HORVW Obs ([9]; 2,4-D alone 125 g a.i./ha): 25
Postemergence HORVW Obs ([9]; 2,4-D alone 250 g a.i./ha): 25

SACOF Obs ([8]; 15 DAA): 0
SACOF Obs ([8]; 29 DAA): 0
SACOF Obs ([8]; 48 DAA): 0
SACOF Obs ([8]; 61 DAA): 5
SMILES: Nc1nc(C2CC2)nc(C(=O)O)c1Cl [Compound 1, 6-amino-5-chloro-2-cyclopropyl-4-pyrimidinecarboxylic acid]

SMILES: CCNc1nc(Cl)nc(NC(C)C)n1 [Atrazine, atrazine, reference compound]
AMARE Obs [1, 11]: 72
AMARE Obs [1, 12]: 97
AMARE Obs [1, 13]: 90
AMARE Obs [1, 14]: 100
AMARE Obs [1, 15]: 100
AMARE Obs [1, 16]: 95
AMARE Obs [1, 17]: 99
AMARE Obs [1, 18]: 100
AMARE Obs [1, 19]: 100
AMARE Obs [1, 20]: 100

SMILES: CCc1cccc(C)c1N(C(=O)CCl)[C@@H](C)COC [S-Metolachlor, S-metolachlor, reference compound]
RAPRA Obs ([7]; 14 DAA, 1000 g a.i./ha): 40%
RAPRA Obs ([7]; 28 DAA, 1000 g a.i./ha): 15%
Obs growth % of control ([10]; 19 DAA, 1870 g a.i./ha): 7%
Obs growth % of control ([10]; 28 DAA, 1870 g a.i./ha): 5%
Obs growth % of control ([10]; 56 DAA, 1870 g a.i./ha): 1%
